Measured values: ChEMBL document CHEMBL1127176, “Restricted rotation analogs of S-adenosylmethionine: synthesis, evaluation as inhibitors of S-adenosylmethionine decarboxylase, and potential use as selective antitrypanosomal agents” (Bioorg Med Chem Lett, 1993)

Columns and labels:
[1] = system: Trypanosoma brucei; assay: Tested for antitrypanosomal activity against blood forms of Trypanosoma uM concentration; type: functional
[2] = system: HL-60; assay: Tested for the ability to traverse cell membranes and to alter ratio of AdoMet to S-adenosyl-homocysteine (AdoHcy) in HL60 human promyelocytic leukemia cells; type: functional, cell-based
[3] = system: L1210; assay: Tested for the ability to traverse cell membranes and to alter ratio of AdoMet to S-adenosyl-homocysteine (AdoHcy) in L1210 murine lymphocytic leukemia cells; IA means inactive; type: functional, cell-based, Mus musculus
[4] = system: HT-29; assay: Tested for the ability to traverse cell membranes and to alter ratio of AdoMet to S-adenosyl-homocysteine (AdoHcy) in HT-29 human colon carcinoma; IA means inactive; type: functional, cell-based

Row | Structure (SMILES) | Inhibition [1] [%] | IC50 [2] [µM] | IC50 [3] | IC50 [4]
1 | C[S+](C[C@H]1O[C@@H](n2cnc3c(N)ncnc32)[C@H](O)[C@@H]1O)C1CN[C@H](C(=O)O)C1.O=S(=O)(O)O.O=S(=O)([O-])O (stereo partly drawn) | 64 | > 1000 | – | –
2 | C[S+](C[C@H]1O[C@@H](n2cnc3c(N)ncnc32)[C@H](O)[C@@H]1O)C1CCNC1.O=S(=O)(O)O.O=S(=O)([O-])O (stereo partly drawn) | 49 | – | – | –
3 | Nc1ncnc2c1ncn2[C@@H]1O[C@H](CS[C@@H]2CN[C@H](C(=O)O)C2)[C@@H](O)[C@H]1O.O=S(=O)(O)O | 30 | > 1000 | – | –
4 | Nc1ncnc2c1ncn2[C@@H]1O[C@H](CS[C@H]2CN[C@H](C(=O)O)C2)[C@@H](O)[C@H]1O.O=S(=O)(O)O | 41 | > 1000 | – | –
5 | C[S+](C[C@H]1O[C@@H](n2cnc3c(N)ncnc32)[C@H](O)[C@@H]1O)[C@H]1CN[C@H](C(=O)O)C1.O=S(=O)(O)O.O=S(=O)([O-])O (stereo partly drawn) | 34 | > 1000 | – | –
6 | C[S+](C[C@H]1O[C@@H](n2cnc3c(N)ncnc32)[C@H](O)[C@@H]1O)C1C=C[C@H](N)C1.O=S(=O)(O)O.O=S(=O)([O-])O (stereo partly drawn) | 50 | – | Not Active | Not Active
7 | Nc1ncnc2c1ncn2[C@@H]1O[C@H](CSC2CCNC2)[C@@H](O)[C@H]1O.O=S(=O)(O)O (stereo partly drawn) | 40 | – | – | –
